The subject of this test is Normal human adult dermal fibroblasts. Kind of test: Cell Titer96 Cell Proliferation Assay: mitogenic effects of synthesized peptides on human fibroblasts in culture for 5 days. It is filed as cell-based. Conditions: normalized to baseline controls. On the procedure:
Normal human adult dermal fibroblasts were cultured in fibroblast growth medium (Clonetics™/BioWhittaker, San Diego, Calif., USA). Passage 5 cells were seeded into wells of 96 well plates at 5×10^3 cells/well. Test peptide solutions were prepared at approximately 1.5 mg/ml in sterile water. Small volumes of 0.1N NH4OH were added dropwise to peptide the peptide solutions to completely solubilize the peptides as recommended by the manufacturer (New England Peptide, Inc., Fitchburg, Miss., USA). The volume of NH4OH added to the solution was recorded and used to adjust beginning concentration. Solutions were serially diluted in fibroblast culture medium from 100-0.001 μg/ml, then added to the cells and cultured for 5 days. At day 3, test and control media were removed from each well by vacuum and replaced with fresh test or control solutions. Samples were evaluated in 4 replicate wells. Note in each plate, wells were selected at random to be used as baseline controls to account for any variation in cell seeding between plates. After 5 days, cell proliferation was assessed spectrophotometrically using the Cell Titer96® Cell Proliferation Assay (Promega Corp., Madison, Wis., USA). Absorbance values were normalized to baseline controls and expressed as percent increased (positive values) or decreased (negative values) proliferation.

This note sets out measurements from US8324346B2, “Bioactive keratin peptides” (Keraplast Technologies, Ltd., priority 2002, dated 2012).

“AAPTV (Consensus peptide) [H2N-AAPTV-OH]”: the “percent increased (positive values) or decreased (negative values) proliferation, concentration 0.001 ug/mL” value amounted to 11.0%; the “percent increased (positive values) or decreased (negative values) proliferation, concentration 0.01 ug/mL” value is recorded as −0.2%; the “percent increased (positive values) or decreased (negative values) proliferation, concentration 0.1 ug/mL” value is 0.3%; the “percent increased (positive values) or decreased (negative values) proliferation, concentration 1 ug/mL” value is on record as 2.8%. For the same substance, the “percent increased (positive values) or decreased (negative values) proliferation, concentration 10 ug/mL” value is given as −5.9% and the “percent increased (positive values) or decreased (negative values) proliferation, concentration 100 ug/mL” value is given as −5.9%.

Turning to “AAPTVD (Consensus peptide) [H2N-AAPTVD-OH]”, the “percent increased (positive values) or decreased (negative values) proliferation, concentration 0.001 ug/mL” value is 11.6%; the “percent increased (positive values) or decreased (negative values) proliferation, concentration 0.01 ug/mL” value is 7.9%; the “percent increased (positive values) or decreased (negative values) proliferation, concentration 0.1 ug/mL” value was −1.1%; the “percent increased (positive values) or decreased (negative values) proliferation, concentration 1 ug/mL” value worked out at 1.7%. For the same substance, the “percent increased (positive values) or decreased (negative values) proliferation, concentration 10 ug/mL” value is reported as −2.0% and the “percent increased (positive values) or decreased (negative values) proliferation, concentration 100 ug/mL” value is on record as 1.6%.

On to “APTVDLN (Consensus peptide) [H2N-APTVDLN-OH]”, for which the “percent increased (positive values) or decreased (negative values) proliferation, concentration 0.001 ug/mL” value worked out at 1.2%; the “percent increased (positive values) or decreased (negative values) proliferation, concentration 0.01 ug/mL” value amounted to 3.9%; the “percent increased (positive values) or decreased (negative values) proliferation, concentration 0.1 ug/mL” value came to 2.8%; the “percent increased (positive values) or decreased (negative values) proliferation, concentration 1 ug/mL” value is reported as −6.0%. The “percent increased (positive values) or decreased (negative values) proliferation, concentration 10 ug/mL” value amounted to 8.1% and the “percent increased (positive values) or decreased (negative values) proliferation, concentration 100 ug/mL” value stood at 6.7%.

As for “DAAPTV (Consensus peptide) [H2N-DAAPTV-OH]”, the “percent increased (positive values) or decreased (negative values) proliferation, concentration 0.001 ug/mL” value is −3.0%; the “percent increased (positive values) or decreased (negative values) proliferation, concentration 0.01 ug/mL” value worked out at 9.5%; the “percent increased (positive values) or decreased (negative values) proliferation, concentration 0.1 ug/mL” value turned out to be 7.5%; the “percent increased (positive values) or decreased (negative values) proliferation, concentration 1 ug/mL” value is 3.5%. Also, the “percent increased (positive values) or decreased (negative values) proliferation, concentration 10 ug/mL” value is recorded as −6.1% and the “percent increased (positive values) or decreased (negative values) proliferation, concentration 100 ug/mL” value is on record as −2.7%.

Regarding DLNQ (Consensus peptide) [H2N-DLNQ-OH], the “percent increased (positive values) or decreased (negative values) proliferation, concentration 0.001 ug/mL” value turned out to be 15.9%; the “percent increased (positive values) or decreased (negative values) proliferation, concentration 0.01 ug/mL” value is 8.9%; the “percent increased (positive values) or decreased (negative values) proliferation, concentration 0.1 ug/mL” value was 2.6%; the “percent increased (positive values) or decreased (negative values) proliferation, concentration 1 ug/mL” value is given as −0.8%. Besides, the “percent increased (positive values) or decreased (negative values) proliferation, concentration 10 ug/mL” value is reported as −0.7% and the “percent increased (positive values) or decreased (negative values) proliferation, concentration 100 ug/mL” value is on record as −3.6%.

Consider “DLNRVL (Consensus peptide) [H2N-DLNRVL-OH]”, for which the “percent increased (positive values) or decreased (negative values) proliferation, concentration 0.001 ug/mL” value turned out to be 14.4%; the “percent increased (positive values) or decreased (negative values) proliferation, concentration 0.01 ug/mL” value came out at 11.5%; the “percent increased (positive values) or decreased (negative values) proliferation, concentration 0.1 ug/mL” value was −0.4%; the “percent increased (positive values) or decreased (negative values) proliferation, concentration 1 ug/mL” value is −2.8%. The “percent increased (positive values) or decreased (negative values) proliferation, concentration 10 ug/mL” value is on record as −3.5% and the “percent increased (positive values) or decreased (negative values) proliferation, concentration 100 ug/mL” value is given as −1.2%.

Regarding “DTAPTV (Consensus peptide) [H2N-DTAPTV-OH]”, the “percent increased (positive values) or decreased (negative values) proliferation, concentration 0.001 ug/mL” value was determined as 3.2%; the “percent increased (positive values) or decreased (negative values) proliferation, concentration 0.01 ug/mL” value amounted to 2.5%; the “percent increased (positive values) or decreased (negative values) proliferation, concentration 0.1 ug/mL” value turned out to be 6.7%; the “percent increased (positive values) or decreased (negative values) proliferation, concentration 1 ug/mL” value is reported as 2.9%. Further, the “percent increased (positive values) or decreased (negative values) proliferation, concentration 10 ug/mL” value came out at 2.2% and the “percent increased (positive values) or decreased (negative values) proliferation, concentration 100 ug/mL” value stood at 7.6%.

Take “EVDAAPT (Consensus peptide) [H2N-EVDAAPT-OH]”: the “percent increased (positive values) or decreased (negative values) proliferation, concentration 0.001 ug/mL” value came out at 6.5%; the “percent increased (positive values) or decreased (negative values) proliferation, concentration 0.01 ug/mL” value turned out to be 8.9%; the “percent increased (positive values) or decreased (negative values) proliferation, concentration 0.1 ug/mL” value worked out at 5.4%; the “percent increased (positive values) or decreased (negative values) proliferation, concentration 1 ug/mL” value was 7.1%. The “percent increased (positive values) or decreased (negative values) proliferation, concentration 10 ug/mL” value is on record as 16.5% and the “percent increased (positive values) or decreased (negative values) proliferation, concentration 100 ug/mL” value is 4.1%.

Turning to “LGDRL (Consensus peptide) [H2N-LGDRL-OH]”, the “percent increased (positive values) or decreased (negative values) proliferation, concentration 0.001 ug/mL” value turned out to be 10.3%; the “percent increased (positive values) or decreased (negative values) proliferation, concentration 0.01 ug/mL” value was determined as 0.0%; the “percent increased (positive values) or decreased (negative values) proliferation, concentration 0.1 ug/mL” value worked out at 0.6%; the “percent increased (positive values) or decreased (negative values) proliferation, concentration 1 ug/mL” value is reported as −4.8%. In addition, the “percent increased (positive values) or decreased (negative values) proliferation, concentration 10 ug/mL” value is given as −3.1% and the “percent increased (positive values) or decreased (negative values) proliferation, concentration 100 ug/mL” value is −3.8%.

“LNVEV (Consensus peptide) [H2N-LNVEV-OH]”: the “percent increased (positive values) or decreased (negative values) proliferation, concentration 0.001 ug/mL” value is on record as −1.0%; the “percent increased (positive values) or decreased (negative values) proliferation, concentration 0.01 ug/mL” value is 0.9%; the “percent increased (positive values) or decreased (negative values) proliferation, concentration 0.1 ug/mL” value was −10.8%; the “percent increased (positive values) or decreased (negative values) proliferation, concentration 1 ug/mL” value is reported as −11.4%. For the same substance, the “percent increased (positive values) or decreased (negative values) proliferation, concentration 10 ug/mL” value was 15.9% and the “percent increased (positive values) or decreased (negative values) proliferation, concentration 100 ug/mL” value is reported as 13.9%.

Turning to “RLNVEV (Consensus peptide) [H2N-RLNVEV-OH]”, the “percent increased (positive values) or decreased (negative values) proliferation, concentration 0.001 ug/mL” value is listed as −2.6%; the “percent increased (positive values) or decreased (negative values) proliferation, concentration 0.01 ug/mL” value was −6.0%; the “percent increased (positive values) or decreased (negative values) proliferation, concentration 0.1 ug/mL” value is recorded as −4.3%; the “percent increased (positive values) or decreased (negative values) proliferation, concentration 1 ug/mL” value came out at 1.9%. Moreover, the “percent increased (positive values) or decreased (negative values) proliferation, concentration 10 ug/mL” value came out at 6.4% and the “percent increased (positive values) or decreased (negative values) proliferation, concentration 100 ug/mL” value was determined as 10.6%.

Regarding “SPLGD (Consensus peptide) [H2N-SPLGD-OH]”, the “percent increased (positive values) or decreased (negative values) proliferation, concentration 0.001 ug/mL” value is reported as 11.8%; the “percent increased (positive values) or decreased (negative values) proliferation, concentration 0.01 ug/mL” value came to 1.7%; the “percent increased (positive values) or decreased (negative values) proliferation, concentration 0.1 ug/mL” value is on record as −4.2%; the “percent increased (positive values) or decreased (negative values) proliferation, concentration 1 ug/mL” value is on record as 1.5%. Besides, the “percent increased (positive values) or decreased (negative values) proliferation, concentration 10 ug/mL” value is −1.2% and the “percent increased (positive values) or decreased (negative values) proliferation, concentration 100 ug/mL” value was −4.3%.

For “TAPTV (Consensus peptide) [H2N-TAPTV-OH]”, the “percent increased (positive values) or decreased (negative values) proliferation, concentration 0.001 ug/mL” value came to 5.2%; the “percent increased (positive values) or decreased (negative values) proliferation, concentration 0.01 ug/mL” value was −1.2%; the “percent increased (positive values) or decreased (negative values) proliferation, concentration 0.1 ug/mL” value stood at 9.4%; the “percent increased (positive values) or decreased (negative values) proliferation, concentration 1 ug/mL” value is given as 8.2%. Besides, the “percent increased (positive values) or decreased (negative values) proliferation, concentration 10 ug/mL” value is −2.7% and the “percent increased (positive values) or decreased (negative values) proliferation, concentration 100 ug/mL” value is 0.7%.
